“Also recorded” adds a separate entry of the source.
What was measured:
[1] = test system: rps29+/- zebrafish embryos; test: Hemoglobin (benzidine) staining in rps29 mutant zebrafish embryos; type: in vivo
Experimental: (FIG. 10A) SMER28 rescues RBC output in rps29^+/− zebrafish embryos. The level of hemoglobin in the yolk sac was visualized 40hpf with benzidine staining. Images are representative of the proportion of embryos indicated (of total counted). (FIG. 10B) Quantitation of SMER28 rescue for a range of 0.1-1 μM, with embryos grouped by high, medium, and low levels of hemoglobin staining. (FIG. 10C) Peripheral blood (PB) RBC counts and hematocrit in mice with irradiation-induced anemia. Mice were treated with the PEG400-based vehicle containing DMSO (VEH) (n=11), 1 mg/kg Dex (sodium-phosphate) (n=13), or 10 mg/kg SMER28 (n=9) for 3 weeks, bled, and assessed. Data are combined from 3 independent experiments. (FIG. 10D) Erythroid cells as proportion of the human graft in mice transplanted with DBA CD34-5F progenitors, and treated as in (FIG. 1c). (FIG. 10E) Levels of human engraftment in NSG mouse bone marrow (BM) transplanted with CB CD34^+ cells. Mice were treated with DMSO plus vehicle (VEH) (n=10), 1 mg/kg Dex (sodium-phosphate) (n=6), or 2 mg/kg SMER28 (n=11) for 4 weeks. (FIG. 10F) The proportion of erythroid, myeloid, and lymphoid (B cells) lineages within the human graft in vehicle- and SMER28-treated mice transplanted with CB CD34^+ cells. Only the effect on the erythroid lineage was significant. Data in FIGS. 10E-10G are pooled from 2 independent experiments. […]

[2] = test system: CD34-5F progenitors with ATG5 knockdown; test: Erythroid differentiation of CD34-5F cells transduced with shRNAs for ATG5; type: cell-based, human; settings: SMER28 10 μM; p=0.005
Experimental: (FIG. 13A) Induction of autophagy by SMER28 (40 μM) monitored by protein levels of p62, LC3-I, and LC3-II after 24 hours. Cells were also treated with 5-FU (100 nM) to induce autophagy, or inhibitor of transcription actinomycin D (ActD; 100 nM). (FIG. 13B) Induction of autophagy by SMER28 (40 μM) monitored by protein levels of p62, LC3-I, and LC3-II after 24 hours treatment with or without lysosomal blockade with bafilomycin A (200 nM for 4 hours). Untreated samples are shown at higher exposure, to capture dynamic changes in the LC3-II levels. Rapamycin (200 nM) is a positive control. LC3-II levels relative to GAPDH are quantitated on the right. (FIG. 13C) Erythroid differentiation of CD34-5F cells transduced with shRNAs for luciferase (LUC) or ATG5±SMER28. Representative flow plots and quantitation showing the number of erythroid cells induced by SMER28 (10 μM) normalized to DMSO. 2 control luciferase shRNAs and 2 ATG5 shRNAs are included (knockdown efficiency in hematopoietic cells of 58% and 50%, respectively), each with 2 independent lines; p=0.005, 3 independent experiments. (FIG. 13D) Atg5 deficiency causes anemia in zebrafish. […] Representative images (left), and quantitation (right) with embryos grouped by high, medium, and low levels of benzidine staining. […]

[3] = test system: p21; test: p21 levels in CD34+ cells of DBA patient derived erythroid cell population; type: cell-based, human; settings: 1.5 μM; in vitro
Source text: Accordingly, in another embodiment, an autophagy activator as disclosed herein can be administered to a subject according to the methods as disclosed herein in an effective dose to decrease the levels of p21 expression in CD34+ cells present in an erythroid cell population obtained from the subject by at least about 1%, at least about 2%, at least about 3%, at least about 5%, at least about 10%, at least about 15%, least about 20%, at least about 30%, at least about 40%, at least about 50%, at least about 60%, at least about 70%, at least about 80%, at least about 90%, at least about 95%, at least about 98%, at least about 99%, or more than 99%, as compared to in the absence of an autophagy activator.

C=CCNc1ncnc2ccc(Br)cc12 [SMER28, 6-Bromo-N-2-propenyl-4-quinazolinam]
embryos showing high levels of hemoglobin ([1]; 1 μM, 40 hpf, vehicle-treated controls 20%, p<0.05): Over 50% | hemoglobin staining / RBC output in yolk sac ([1]; treated for 40 hpf, benzidine staining): robust increase; also recorded: rescues | effect of SMER28 on erythroid differentiation after knockdown of ATG5 [2]: significantly reduced | levels of p21 in CD34+ cells [3]: decreased

Source: patent publication US11980620B2, “Compounds and methods for treatment of Diamond Blackfan anemia” (THE CHILDREN'S MEDICAL CENTER CORPORATION, priority 2017, dated 2024)
